Test results taken from patent publication US20040044013A1, “1-dimercaptoalkylquinazolin-2,4(1h,3h)-diones as matrix metalloproteinase (mmp) inhibitors” (priority 2001, published 2004).
Values belong to the compound of their own block, whether it stands above or below them.

What was measured:
Format in all cases: biochemical
[1] = target: T1, catalytic domain of MMP-8 (Homo sapiens, UniProt P22894); test: Quantitative fluorescence assay for matrix metalloproteinases, MMP-8
T1 construct: instead of the whole enzyme only its enzymatically active catalytic domain was cloned into E. coli; made in house; host or cells: E. coli
T1 sequence (P22894 100-262 limits assumed): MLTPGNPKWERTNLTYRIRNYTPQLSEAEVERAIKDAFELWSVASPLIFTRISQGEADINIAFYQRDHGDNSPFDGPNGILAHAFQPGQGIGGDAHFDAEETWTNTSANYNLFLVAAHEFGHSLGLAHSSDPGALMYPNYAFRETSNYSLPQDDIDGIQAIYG
From the text: Cloning and Expression of the Catalytic MMP-8 Domain
The catalytic MMP-8 domain was used as another test enzyme because it has a high degree of stability and is also available as an active enzyme and therefore needs not be activated, which is in consideration as one of the most frequent causes of error since the mercury compounds used for the activation often interfere with the test system and/or the enzyme and in this way can falsify the measuring results. The cloning strategy was directed towards the circumstance that instead of the whole enzyme only its enzymatically active catalytic domain was cloned into E. coli.
The cloning and expression of the recombinant catalytic MMP-8 domain was carried out in accordance with the information given by SCHNIERER et al. (Schnierer S., Kleine T., Gote T., Hillemann A., Knauper V., Tschesche H.: The recombinant catalytic domain of human neutrophil collagenase lacks type I collagen substrate specificity. Biochem Biophys Res Comm (1993), vol. 191, No. 2, 319-326).
(§1) Quantitative Fluorescence Assay for Matrix Metalloproteinases
(§2) The fluorescent group Mca is separated from the internal quencher Dpa by enzymatic cleavage of the synthetic substrate Mca-Pro-Leu-Gly-Leu-Dpa-Ala-Arg-NH2 using the respective collagenase. This is accompanied by a great increase in fluorescence in the measuring batch, which can be quantified using a fluorimeter (λex 328 nm, λem 393 nm) and proceeds linearly within the first few minutes. […] The proteolytic residual activity of pre-incubated batches of enzyme and inhibitor is measured, the substrate and enzyme concentrations having been kept constant and the inhibitor concentration having been varied. […]
(§3) 5 min. preliminary incubation of the enzyme-inhibitor mixture at room temperature while stirring start of the reaction with 10 μl substrate dissolved in DMSO recording of the time-sensitive fluorescence increase over a period of 2 min.

[2] = target: T2, recombinant catalytic domain of MMP-3 (Homo sapiens, UniProt P08254); test: Quantitative fluorescence assay for matrix metalloproteinases, MMP-3
T2 construct: Cloning and Expression of the Catalytic Domains of MT1-MMP and MMP-3; made in house; host or cells: Escherichia coli (inclusion bodies, renatured)
T2 sequence (P08254 100-272 limits assumed): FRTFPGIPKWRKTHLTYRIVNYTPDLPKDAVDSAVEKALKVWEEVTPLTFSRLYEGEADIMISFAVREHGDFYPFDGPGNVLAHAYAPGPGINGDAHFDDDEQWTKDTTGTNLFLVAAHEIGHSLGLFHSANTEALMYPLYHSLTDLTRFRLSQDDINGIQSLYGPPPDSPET
From the text: (§4) Cloning and Expression of the Catalytic Domains of MT1-MMP and MMP-3
(§5) Based on the good experience with the use of the catalytic domain of MMP-8 in the kinetic measurements, two more recombinant expressions were established analogously, i.e. that of human membrane type 1 matrix metalloproteinase (MT1-MMP; MMP-14) and that of human MMP-3 (stromelysin-1). Both enzymes are exemplary representatives of subgroups of human matrix metalloproteinases. Both proteins may be renatured stably and in catalytically active form from inclusion bodies of transformed Escherichia coli cells. As in the recombinant MMP-8 thus the subsequent activation of the enzymes is dropped, which improves the reproducibility of the kinetic measurements. The purity of the recombinant enzyme domains was at least 70%.
The cloning and expression of the catalytic domains oriented itself by the following publications: Lichte A., Kolkenbrock H., Tschesche H.: The recombinant catalytic domain of membrane-type matrix metalloproteinase-1 (MT1-MMP) induces activation of progelatinase A and progelatinase A complexed with TIMP-2. […]
as §1, §2, §3

[3] = target: T3, MMP-2 (Homo sapiens, UniProt P08253); test: Quantitative fluorescence assay for matrix metalloproteinases, MMP-2
T3 construct: endogenous in cells; host or cells: cultured human dermal fibroblasts (secreted into culture supernatant)
T3 sequence (P08253 110-660): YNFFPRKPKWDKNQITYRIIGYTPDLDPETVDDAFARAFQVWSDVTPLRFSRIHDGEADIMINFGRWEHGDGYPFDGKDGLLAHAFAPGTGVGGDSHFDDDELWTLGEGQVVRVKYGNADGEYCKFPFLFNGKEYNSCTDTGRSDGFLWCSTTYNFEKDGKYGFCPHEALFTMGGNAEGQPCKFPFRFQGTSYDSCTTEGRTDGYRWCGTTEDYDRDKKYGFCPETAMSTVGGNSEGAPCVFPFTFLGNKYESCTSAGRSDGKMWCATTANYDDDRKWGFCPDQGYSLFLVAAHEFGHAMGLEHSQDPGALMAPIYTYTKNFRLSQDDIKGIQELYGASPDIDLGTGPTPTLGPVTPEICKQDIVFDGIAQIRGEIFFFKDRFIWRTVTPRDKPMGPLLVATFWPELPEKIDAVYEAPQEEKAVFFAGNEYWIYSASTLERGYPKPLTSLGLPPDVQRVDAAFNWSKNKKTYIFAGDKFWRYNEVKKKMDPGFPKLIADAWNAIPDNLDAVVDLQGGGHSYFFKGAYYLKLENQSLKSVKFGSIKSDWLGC
Experimental: Inhibition of Matrix Metalloproteinase-2 (MMP-2)
MMP-2 (gelatinase) is supplied by cultured dermal fibroblasts to the culture medium in considerable amounts and is thus easily accessible.
For this purpose, human dermal fibroblasts are obtained according to established standard methods and cultured and the cell-free culture supernatant is treated with trypsin. Trypsin is then inactivated with a specific inhibitor (TLCK) and active MMP-2 is partially purified by affinity chromatography on gelatin sepharose and subsequent gel filtration on sepharose. MMP-2 was identified and characterized by the availability of a commercial immunoassay.
as §1
The fluorescent group Mca is separated from the internal quencher Dpa by enzymatic cleavage of the synthetic substrate Mca-Pro-Leu-Gly-Leu-Dpa-Ala-Arg-NH2 using the respective collagenase. This is accompanied by a great increase in fluorescence in the measuring batch, which can be quantified using a fluorimeter (λex 328 nm, λem 393 nm) and proceeds linearly within the first few minutes. A certain specificity of the test to matrix metalloproteinases follows from the amino acid sequence -Pro-Leu-Gly-Leu- in the substrate, on the one hand, and from the select incubation conditions, on the other hand. Matrix metalloproteinases cleave the substrate at the Gly-Leu bond. The proteolytic residual activity of pre-incubated batches of enzyme and inhibitor is measured, the substrate and enzyme concentrations having been kept constant and the inhibitor concentration having been varied. Three series of measurements using a different substrate concentration were made for each tested inhibitor.
[…] inhibitor dissolved in DMSO, or DMSO alone (non-inhibitory approach) 4 μl enzyme (MMP-2 or MMP-9 or catalytic domain of MMP-8)
as §3

[4] = target: T4, MMP-9 (Homo sapiens, UniProt P14780); test: Quantitative fluorescence assay for matrix metalloproteinases, MMP-9
T4 construct: from tissue; host or cells: human buffy coat (leukocytes)
T4 sequence (P14780 107-707 limits assumed): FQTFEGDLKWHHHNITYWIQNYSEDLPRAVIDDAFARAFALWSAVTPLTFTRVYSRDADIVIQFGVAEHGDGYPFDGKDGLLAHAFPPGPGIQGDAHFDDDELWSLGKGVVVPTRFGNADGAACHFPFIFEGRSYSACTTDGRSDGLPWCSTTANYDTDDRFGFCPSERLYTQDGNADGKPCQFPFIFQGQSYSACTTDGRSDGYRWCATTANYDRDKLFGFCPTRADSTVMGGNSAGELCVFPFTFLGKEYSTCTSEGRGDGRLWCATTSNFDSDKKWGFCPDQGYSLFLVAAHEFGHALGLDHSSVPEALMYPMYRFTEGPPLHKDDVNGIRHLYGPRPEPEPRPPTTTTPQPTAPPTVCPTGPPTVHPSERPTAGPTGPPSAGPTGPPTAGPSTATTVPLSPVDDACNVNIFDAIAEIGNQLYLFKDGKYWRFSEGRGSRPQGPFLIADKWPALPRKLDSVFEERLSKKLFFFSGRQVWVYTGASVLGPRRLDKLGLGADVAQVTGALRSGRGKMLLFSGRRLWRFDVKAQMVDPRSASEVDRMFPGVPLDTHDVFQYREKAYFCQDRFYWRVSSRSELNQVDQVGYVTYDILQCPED
Experimental: Preparation of the Human Collagenase MMP-9
Native MMP-9 was obtained reproducibly and with good yield and purity from human Buffy Coat. For this purpose, Buffy Coat is brought to a final concentration of 0.4% using 10% (v/v) triton X-100, shaken on ice for 30 min. and then 1 vol. double binding buffer (40 mM Tris-HCl, pH 7.5, 10 mM CaCl2, 1 M NaCl, 0.2% (v/v) triton X-100) is added and shaking on ice is continued for another 30 min.
The solution is centrifuged off at 16,000 rpm on an SS-34 rotor at 4° C. for 15 min. and filtered on glass wool. The filtrate is batched with gelatin agarose equilibrated with binding buffer and shaken on ice for 1 hour.
The charged gelatin agarose is transferred to a column and rinsed in protein-free manner using at least 10 vol. binding buffer. The bound MMP-9 is eluted with 2 gel volumes binding buffer plus 5% (v/v) DMSO.
For an exchange of buffers and simultaneous separation of minor MMP-2 contaminations the eluate can be separated on sephadex G-75 by means of gel filtration. Buffer I (20 mM Tris-HCl, pH 7.5, 5 mM CaCl2, 100 mM NaCl, 0.1% (v/v) triton X-100) is used for this purpose. […]
as §1, §2, §3

[5] = target: T5, recombinant catalytic domain of MT1-MMP (MMP-14) (Homo sapiens, UniProt P50281); test: Quantitative fluorescence assay for matrix metalloproteinases, MT1-MMP
T5 construct: Cloning and Expression of the Catalytic Domains of MT1-MMP and MMP-3; made in house; host or cells: Escherichia coli (inclusion bodies, renatured)
From the text: as §4
as §5, with “The purity of the recombinant enzyme domains was at least 70%.” left out
as §1, §2

MMP-8 inhibition ([1]; with 3.5 μM inhibitor): 50% | MMP-3 inhibition ([2]; with 9 μM inhibitor): 50% | MMP-2 inhibition ([3]; with 5 μM inhibitor): 50% | MMP-9 inhibition ([4]; with 3.5 μM inhibitor): 50%
Compound: O=c1[nH]c(=O)n(CCC(S)CS)c2ccccc12 (racemic) [Example 3, (R,S)-1-(3′,4′-Dimercapto-but-1′-yl)quinazoline-2,4(1H,3H)dione]

MT1-MMP inhibition ([5]; with 4 μM inhibitor): 60% | MMP-8 inhibition ([1]; with 4 μM inhibitor): 75% | MMP-3 inhibition ([2]; with 4 μM inhibitor): 75% | MMP-2 inhibition ([3]; with 4 μM inhibitor): 75% | MMP-9 inhibition ([4]; with 4 μM inhibitor): 80%
Compound: O=c1[nH]c(=O)n(CC(S)CS)c2ccccc12 (racemic) [Example 2, (R,S)-1-(2′,3′-Dimercapto-prop-1′-yl)quinazoline-2,4(1H,3H)-dione]

Compound: O=c1[nH]c(=O)n(C(CS)CS)c2ccccc12 [Example 1, 1-(1′,3′-Dimercapto-prop-2′-yl)quinazoline-2,4(1H,3H)dione]
MT1-MMP inhibition ([5]; with 10 μM inhibitor): 30% inhi- | MMP-8 inhibition ([1]; with 10 μM inhibitor): 70% | MMP-3 inhibition ([2]; with 10 μM inhibitor): 50% | MMP-2 inhibition ([3]; with 10 μM inhibitor): 50% | MMP-9 inhibition ([4]; with 10 μM inhibitor): 60%
